Test results: the NIST ThermoML archive (doi:10.1021/acs.jced.6b00929)
Numbers after ± are expanded uncertainties.

Experiments:
[1] = Crystal; DTA
[2] = Molar enthalpy of transition or fusion; settings: Crystal; DSC

## CC(=O)Oc1ccc(C2CC(=O)c3c(OC(C)=O)cc(OC(C)=O)cc3O2)cc1 (configuration not stated) [4',5,7-triacetoxyflavanone]
[1]
  Normal melting temperature: 73.80 ± 0.46 °C
[2]
  Molar enthalpy of transition or fusion: 4.97 ± 0.263 kcal/mol
